In ChEMBL document CHEMBL1201862, “PubChem BioAssay data set” (2004) one finds EC50, IC50 and AC50 data, which are given here for ten compounds.

Each structure is given as a SMILES string. Activity calls are given as the source filed them.

In one assay the test system is H4. Description: Luminescence Cell-Based Dose Response HTS to Identify Activators of 5'UTR Stem-Loop Driven Prion Protein mRNA Translation in H4 Neuroglioblastoma Cells. [Related pubchem assays: 1829 (Project Summary), 1814 (Primary HTS)]. It is filed as functional. The note with it: Homo sapiens.
The nature of assay [1]: Luminescence Cell-Based Dose Response HTS to Identify Activators of Luciferase Translation or Activity in H4 […] Cells. [Related pubchem assays: 1829 (Project Summary), 1814 (Primary HTS)]. It is filed as functional.
For assay [2], the target named is T1, Beta-galactosidase (Escherichia coli, UniProt Q8VNN2). The assay can be described thus: beta-galactosidase enzyme inhibitors and activators, dose response, artefact control for CCR6 antagonist project, biochemical, E. coli enzyme, set 3 (AID 504712). It is filed as functional.
Assay [3] is described as follows: Luminescence Cell-Based Dose Confirmation HTS to Identify Activators of 5'UTR Stem-Loop Driven Alpha-Synuclein mRNA Translation in H4 Neuroglioblastoma Cells. [Related pubchem assays: 1829 (Project Summary), 1814 (Primary HTS)]. It is filed as functional.
Assay [4] addresses T2, E3 ubiquitin-protein ligase XIAP (Homo sapiens, UniProt P98170). The assay can be described thus: XIAP antagonists, biochemical, IAP family, fluorescence polarization (AID 1018). It is filed as functional.
Assay [5] concerns the target T2, E3 ubiquitin-protein ligase XIAP. The assay can be described thus: Counter Screen using XIAP-Bir3 for Chemical Antagonists of Bir1/2 domains of IAP-family anti-apoptotic proteins. [Related pubchem assays (depositor defined):AID1018, AID1449, AID1514, AID1638, AID1749, AID1750, AID488957, AID488963].
In a further assay the target is Trypsin (Sus scrofa, UniProt P00761). Description: porcine trypsin inhibitors, dose response, selectivity assay for Rce1 protease inhibitor project, biochemical, quenched peptide fluorescence, cherry-pick (AID 488789).
For the next assay, the target named is T3, CAAX prenyl protease 2 (Saccharomyces cerevisiae S288c, UniProt Q03530).
T3 sequence (Q03530 whole entry): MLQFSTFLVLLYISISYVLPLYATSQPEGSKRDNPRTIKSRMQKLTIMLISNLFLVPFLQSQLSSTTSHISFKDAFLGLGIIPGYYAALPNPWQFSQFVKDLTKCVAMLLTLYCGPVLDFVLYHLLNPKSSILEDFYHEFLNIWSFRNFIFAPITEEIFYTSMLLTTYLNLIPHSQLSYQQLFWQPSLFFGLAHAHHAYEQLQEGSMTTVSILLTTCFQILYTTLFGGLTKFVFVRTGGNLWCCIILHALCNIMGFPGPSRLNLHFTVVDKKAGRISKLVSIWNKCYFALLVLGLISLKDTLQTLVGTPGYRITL
It is filed as biochemical.

The target of assay [6] is T1, Beta-galactosidase. Description: Dose response counterscreen for EBI2 assay utilizing the enzyme, b-galactosidase. It is filed as functional.
Assay [7] addresses Induced myeloid leukemia cell differentiation protein Mcl-1 (Homo sapiens, UniProt Q07820). It is filed as functional.
Assay [8] concerns the target T4, Voltage-gated N-type calcium channel alpha-1B subunit/Amyloid beta A4 precursor protein-binding family A member 1 (Homo sapiens, UniProt Q00975+Q02410). It is filed as protein assay.
Another assay deals with Genome polyprotein (dengue virus type 2, UniProt P29990). The assay can be described thus: Dengue-2 NS5 methyltransferase inhibitors, primary screen, biochemical, confirmation dose response (AID 588689). It is filed as functional.
In assay [9] the target is T5, Carboxy-terminal domain RNA polymerase II polypeptide A small phosphatase 1 (Homo sapiens, UniProt Q9GZU7).
T5 sequence (Q9GZU7 whole entry): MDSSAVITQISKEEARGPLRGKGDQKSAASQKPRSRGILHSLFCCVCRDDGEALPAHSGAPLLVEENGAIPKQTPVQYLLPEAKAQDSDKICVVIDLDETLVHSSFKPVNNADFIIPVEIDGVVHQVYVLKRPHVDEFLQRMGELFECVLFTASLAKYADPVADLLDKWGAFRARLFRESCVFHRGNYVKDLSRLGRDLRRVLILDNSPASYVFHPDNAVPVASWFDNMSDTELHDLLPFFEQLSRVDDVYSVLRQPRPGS
The assay can be described thus: inhibitors of CTDSP1, concentration-response testing, biochemical assay, absorbance-based, actives from ultra-high-throughput screening (AID 540297). It is filed as functional.

The target of assay [10] is DNA (cytosine-5)-methyltransferase 1 (Homo sapiens, UniProt P26358). The assay can be described thus: DNMT1 methyltransferase inhibitors, confirmation, biochemical, fluorescent molecular beacon (AID 602386). It is filed as functional.
For assay [11], the target named is T4, Voltage-gated N-type calcium channel alpha-1B subunit/Amyloid beta A4 precursor protein-binding family A member 1. It is filed as protein assay. This is another data set of the same source.
Assay [12] can be described thus: C. albicans growth with fluconazole, confirmation, fluorescence, retest (AID 2467). It is filed as functional, cell-based.
Assay [13] in a line: Shn3 3'UTR reporter inhibitors, dose response, cell-based, Clone20 osteoblasts, firefly luciferase, cherry-picked (AID 624132).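 Note: firefly luciferase luminescence from reporter carrying the Shn3 3'UTR in osteoblasts.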 It is filed as functional.
The nature of assay [14]: growth suppression of beta-catenin-knockout colon cells, dose response, cell-based, HCT116, human colon tumor (AID 1045).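 Note: HCT116 colon tumor cells with beta catenin knocked out; cells exposed to compound for 60 hours.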 It is filed as functional.
Assay [15] in a line: growth suppression of PTEN-null colon cells, dose response, cell-based, HCT116 PTEN knockout (AID 1047).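 Note: HCT116 colon tumor cells with PTEN knocked out; cells exposed to compound for 60 hours before readout; potency for loss of cell viability measured by luminescence.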 It is filed as functional.
A further assay deals with Large T antigen (Simian virus 40, UniProt P03070). It is filed as functional, Betapolyomavirus macacae.
Assay [16] deals with Heat shock protein HSP 90-alpha (Homo sapiens, UniProt P07900). It is filed as functional, organism-based.
The nature of assay [17]: control 3'UTR Renilla luciferase suppression, dose response, counter-screen for Shn3 inhibitor project, cell-based, Clone20-Shn3RL, cherry-picked (AID 624133). It is filed as functional.
A short description of assay [18]: inhibitors of intracellular T. cruzi replication, confirmation, NIH3T3 host cells, beta-gal luminescence (AID 2044).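 Note: intracellular parasites grown in NIH/3T3 mouse fibroblasts as host cells; luminescent beta-galactosidase reporter signal from transgenic T. cruzi replicating inside host cells; inhibitors lower the luminescence signal.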 It is filed as functional, cell-based.
Assay [19] can be described thus: cytotoxicity toward NIH3T3 fibroblasts, dose response, counter-screen, cell-based, ATP luminescence, mouse fibroblasts (AID 2010).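 Note: cells exposed to compound for about 90 hours before reading.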 It is filed as functional.
Assay [20] can be described thus: HepG2 cell cytotoxicity, dose response, cytotoxicity control for Shn3 inhibitor project, CellTiter-Glo, cherry-picked (AID 624134). It is filed as functional, cell-based.
Assay [21] addresses DNA dC->dU-editing enzyme APOBEC-3G (Homo sapiens, UniProt Q9HC16). It is filed as functional.
Assay [22] deals with DNA dC->dU-editing enzyme APOBEC-3A (Homo sapiens, UniProt P31941). Description: Dose Response confirmation of small molecule APOBEC3A DNA Deaminase Inhibitors via a fluorescence-based single-stranded DNA deaminase assay. [Related pubchem assays (depositor defined):AID493011, AID493024]. It is filed as functional.
A further assay has as its target T6, Caspase-6 (Homo sapiens, UniProt P55212).
T6 sequence (P55212 whole entry): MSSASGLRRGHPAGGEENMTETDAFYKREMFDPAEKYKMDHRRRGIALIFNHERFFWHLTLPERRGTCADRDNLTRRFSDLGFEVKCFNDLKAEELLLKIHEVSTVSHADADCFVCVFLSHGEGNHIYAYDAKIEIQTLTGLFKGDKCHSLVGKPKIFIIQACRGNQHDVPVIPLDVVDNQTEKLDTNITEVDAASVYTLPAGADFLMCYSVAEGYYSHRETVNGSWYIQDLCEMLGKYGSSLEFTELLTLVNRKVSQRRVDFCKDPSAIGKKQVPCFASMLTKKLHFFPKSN
Description: human caspase-6 inhibitors, dose response, biochemical, VEID-R110 fluorescence, cherry-pick (AID 720632).

Assay [23] concerns the target T7, Tyrosine-protein phosphatase non-receptor type 7 (Homo sapiens, UniProt P35236).
T7 sequence (P35236 whole entry): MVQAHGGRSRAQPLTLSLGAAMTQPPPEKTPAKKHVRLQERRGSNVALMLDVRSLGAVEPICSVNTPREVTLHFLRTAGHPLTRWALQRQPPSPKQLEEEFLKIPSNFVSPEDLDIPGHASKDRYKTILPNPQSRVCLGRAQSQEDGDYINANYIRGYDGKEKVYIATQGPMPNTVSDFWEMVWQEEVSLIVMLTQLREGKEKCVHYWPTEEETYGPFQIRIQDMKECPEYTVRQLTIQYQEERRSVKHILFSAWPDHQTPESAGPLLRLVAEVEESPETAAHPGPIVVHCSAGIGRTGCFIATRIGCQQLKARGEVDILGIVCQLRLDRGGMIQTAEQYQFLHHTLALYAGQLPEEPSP
Description: redox-dependent HePTP inhibition, mechanism study, biochemical, fluorescence (AID 2068). It is filed as functional.

T2 sequence (P98170 whole entry): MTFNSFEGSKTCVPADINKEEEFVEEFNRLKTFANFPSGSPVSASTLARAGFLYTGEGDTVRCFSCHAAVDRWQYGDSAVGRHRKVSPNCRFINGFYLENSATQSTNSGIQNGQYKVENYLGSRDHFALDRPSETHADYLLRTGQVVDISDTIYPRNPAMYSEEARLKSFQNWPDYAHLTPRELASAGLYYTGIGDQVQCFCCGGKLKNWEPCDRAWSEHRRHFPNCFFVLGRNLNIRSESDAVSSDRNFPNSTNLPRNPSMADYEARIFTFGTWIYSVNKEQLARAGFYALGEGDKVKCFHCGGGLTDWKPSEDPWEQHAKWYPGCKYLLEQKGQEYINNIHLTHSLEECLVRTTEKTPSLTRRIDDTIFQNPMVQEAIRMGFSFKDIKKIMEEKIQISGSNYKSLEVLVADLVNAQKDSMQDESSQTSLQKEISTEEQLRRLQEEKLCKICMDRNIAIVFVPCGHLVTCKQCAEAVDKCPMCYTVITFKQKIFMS
T4 sequence (Q00975 whole entry): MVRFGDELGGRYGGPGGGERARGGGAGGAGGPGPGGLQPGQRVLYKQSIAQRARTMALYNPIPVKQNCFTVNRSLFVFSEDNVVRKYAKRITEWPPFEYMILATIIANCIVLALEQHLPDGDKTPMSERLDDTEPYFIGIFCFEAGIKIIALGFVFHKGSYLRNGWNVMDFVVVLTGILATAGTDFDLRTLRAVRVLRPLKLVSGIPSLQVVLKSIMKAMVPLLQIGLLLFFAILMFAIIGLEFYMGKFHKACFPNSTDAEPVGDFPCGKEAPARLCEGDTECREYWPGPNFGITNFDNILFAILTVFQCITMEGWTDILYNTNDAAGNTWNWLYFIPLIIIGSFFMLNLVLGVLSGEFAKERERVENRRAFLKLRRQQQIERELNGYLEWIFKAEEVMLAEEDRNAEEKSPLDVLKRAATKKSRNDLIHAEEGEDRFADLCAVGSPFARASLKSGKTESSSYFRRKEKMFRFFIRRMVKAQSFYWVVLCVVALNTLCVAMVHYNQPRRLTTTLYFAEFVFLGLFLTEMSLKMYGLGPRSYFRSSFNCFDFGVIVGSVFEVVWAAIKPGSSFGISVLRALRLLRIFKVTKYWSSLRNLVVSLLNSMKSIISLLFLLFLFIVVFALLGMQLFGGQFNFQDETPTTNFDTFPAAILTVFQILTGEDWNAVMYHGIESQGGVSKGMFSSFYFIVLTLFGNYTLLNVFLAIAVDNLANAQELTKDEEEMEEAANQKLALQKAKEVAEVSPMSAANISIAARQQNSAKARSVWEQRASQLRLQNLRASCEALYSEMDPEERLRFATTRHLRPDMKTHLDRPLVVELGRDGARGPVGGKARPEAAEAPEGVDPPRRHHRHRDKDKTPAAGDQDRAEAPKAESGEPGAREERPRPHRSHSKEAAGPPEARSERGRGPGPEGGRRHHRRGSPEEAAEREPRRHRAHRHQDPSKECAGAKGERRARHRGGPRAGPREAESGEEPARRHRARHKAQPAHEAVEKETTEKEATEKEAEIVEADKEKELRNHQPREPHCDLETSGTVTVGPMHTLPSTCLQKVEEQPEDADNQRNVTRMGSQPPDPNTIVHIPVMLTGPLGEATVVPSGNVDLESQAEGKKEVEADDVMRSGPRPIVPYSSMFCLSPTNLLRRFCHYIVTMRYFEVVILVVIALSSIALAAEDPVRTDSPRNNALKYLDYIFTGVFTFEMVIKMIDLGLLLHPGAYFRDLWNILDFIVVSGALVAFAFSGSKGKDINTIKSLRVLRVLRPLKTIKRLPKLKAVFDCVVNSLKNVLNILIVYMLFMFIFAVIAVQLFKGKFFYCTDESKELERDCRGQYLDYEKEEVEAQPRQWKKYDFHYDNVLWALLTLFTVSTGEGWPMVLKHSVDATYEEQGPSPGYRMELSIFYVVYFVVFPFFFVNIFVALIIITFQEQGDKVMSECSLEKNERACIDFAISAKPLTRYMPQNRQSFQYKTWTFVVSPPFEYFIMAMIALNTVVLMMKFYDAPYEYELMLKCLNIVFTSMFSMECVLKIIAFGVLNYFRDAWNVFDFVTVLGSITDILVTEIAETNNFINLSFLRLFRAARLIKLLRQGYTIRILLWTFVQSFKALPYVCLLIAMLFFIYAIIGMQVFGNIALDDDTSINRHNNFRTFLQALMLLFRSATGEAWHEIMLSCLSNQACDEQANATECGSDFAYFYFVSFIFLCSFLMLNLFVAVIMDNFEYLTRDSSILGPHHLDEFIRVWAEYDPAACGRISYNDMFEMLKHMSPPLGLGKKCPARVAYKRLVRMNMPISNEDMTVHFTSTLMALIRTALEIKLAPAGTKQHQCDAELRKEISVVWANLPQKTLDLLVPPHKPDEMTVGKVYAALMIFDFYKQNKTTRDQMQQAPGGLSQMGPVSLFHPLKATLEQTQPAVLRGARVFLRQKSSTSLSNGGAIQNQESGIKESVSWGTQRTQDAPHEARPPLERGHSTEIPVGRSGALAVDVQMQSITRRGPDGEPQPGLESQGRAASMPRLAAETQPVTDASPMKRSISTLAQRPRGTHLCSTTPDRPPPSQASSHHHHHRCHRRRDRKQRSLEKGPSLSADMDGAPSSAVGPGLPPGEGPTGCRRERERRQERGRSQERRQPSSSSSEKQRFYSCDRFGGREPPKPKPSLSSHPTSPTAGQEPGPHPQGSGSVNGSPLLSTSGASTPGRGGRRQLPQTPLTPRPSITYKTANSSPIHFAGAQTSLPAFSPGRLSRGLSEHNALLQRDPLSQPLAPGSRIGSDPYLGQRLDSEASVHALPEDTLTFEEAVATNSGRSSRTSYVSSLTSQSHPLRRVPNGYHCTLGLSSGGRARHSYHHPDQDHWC
T4 sequence (Q02410 whole entry): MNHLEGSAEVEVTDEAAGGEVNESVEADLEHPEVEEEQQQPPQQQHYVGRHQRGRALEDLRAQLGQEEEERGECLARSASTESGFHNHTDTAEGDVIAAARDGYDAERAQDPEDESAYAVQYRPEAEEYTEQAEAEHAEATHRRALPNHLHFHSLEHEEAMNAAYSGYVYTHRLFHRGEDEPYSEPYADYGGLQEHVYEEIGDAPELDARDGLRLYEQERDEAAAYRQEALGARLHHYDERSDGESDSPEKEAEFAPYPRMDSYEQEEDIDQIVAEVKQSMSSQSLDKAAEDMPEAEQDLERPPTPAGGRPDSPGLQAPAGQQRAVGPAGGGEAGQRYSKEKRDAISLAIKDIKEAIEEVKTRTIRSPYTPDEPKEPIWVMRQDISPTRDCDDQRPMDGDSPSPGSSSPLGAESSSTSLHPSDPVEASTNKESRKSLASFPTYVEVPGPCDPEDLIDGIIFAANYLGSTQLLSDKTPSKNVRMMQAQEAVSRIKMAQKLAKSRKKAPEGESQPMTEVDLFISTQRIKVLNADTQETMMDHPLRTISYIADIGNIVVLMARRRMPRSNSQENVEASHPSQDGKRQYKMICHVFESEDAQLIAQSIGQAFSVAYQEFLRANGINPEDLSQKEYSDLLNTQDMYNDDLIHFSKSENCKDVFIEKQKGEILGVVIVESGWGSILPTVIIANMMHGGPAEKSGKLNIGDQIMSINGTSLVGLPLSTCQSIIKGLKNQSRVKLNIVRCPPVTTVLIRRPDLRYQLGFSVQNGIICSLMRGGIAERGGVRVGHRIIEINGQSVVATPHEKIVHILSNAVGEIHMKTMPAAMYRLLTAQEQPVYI
T1 sequence (Q8VNN2 whole entry): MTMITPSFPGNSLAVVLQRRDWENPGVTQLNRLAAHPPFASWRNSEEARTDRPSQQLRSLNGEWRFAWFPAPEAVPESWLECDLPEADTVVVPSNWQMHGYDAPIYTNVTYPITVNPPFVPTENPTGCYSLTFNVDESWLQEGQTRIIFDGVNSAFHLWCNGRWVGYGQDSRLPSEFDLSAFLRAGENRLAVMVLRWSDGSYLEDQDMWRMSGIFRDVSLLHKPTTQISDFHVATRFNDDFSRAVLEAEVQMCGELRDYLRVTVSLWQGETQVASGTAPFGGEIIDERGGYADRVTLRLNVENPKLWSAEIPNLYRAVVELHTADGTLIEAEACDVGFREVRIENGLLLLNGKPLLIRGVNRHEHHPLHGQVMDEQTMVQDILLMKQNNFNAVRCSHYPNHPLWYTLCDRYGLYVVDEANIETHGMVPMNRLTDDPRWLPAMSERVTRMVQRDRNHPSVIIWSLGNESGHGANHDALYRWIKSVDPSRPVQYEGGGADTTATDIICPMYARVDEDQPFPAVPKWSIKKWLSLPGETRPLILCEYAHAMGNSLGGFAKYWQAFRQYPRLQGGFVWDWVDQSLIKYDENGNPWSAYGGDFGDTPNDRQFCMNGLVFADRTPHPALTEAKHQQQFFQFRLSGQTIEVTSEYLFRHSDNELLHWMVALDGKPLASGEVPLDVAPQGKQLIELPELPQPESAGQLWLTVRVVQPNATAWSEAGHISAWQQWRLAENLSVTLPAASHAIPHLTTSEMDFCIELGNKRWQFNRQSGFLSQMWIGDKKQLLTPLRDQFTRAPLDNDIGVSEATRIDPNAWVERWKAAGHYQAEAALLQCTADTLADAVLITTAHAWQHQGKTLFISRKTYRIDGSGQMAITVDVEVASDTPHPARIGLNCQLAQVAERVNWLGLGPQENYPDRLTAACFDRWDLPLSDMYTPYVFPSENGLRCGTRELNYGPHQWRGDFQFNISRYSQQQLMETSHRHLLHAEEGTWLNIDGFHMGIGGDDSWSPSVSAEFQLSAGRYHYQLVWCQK
Chain of DNA dC->dU-editing enzyme APOBEC-3A (P31941 whole entry): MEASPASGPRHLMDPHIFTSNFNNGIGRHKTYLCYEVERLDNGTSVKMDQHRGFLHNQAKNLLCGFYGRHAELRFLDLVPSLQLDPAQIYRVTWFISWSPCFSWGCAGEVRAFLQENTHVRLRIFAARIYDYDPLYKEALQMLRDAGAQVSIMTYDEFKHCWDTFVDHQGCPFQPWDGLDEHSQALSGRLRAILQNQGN

`CCCC(=O)N1c2ccccc2C(=C2SC(C(=O)OC)=C(C(=O)OC)S2)C(=S)C1(C)C`: the EC50 in the assay with H4 is recorded as > 120 µM (not active); in assay [1] it was > 120 µM (not active); in assay [3], > 60 µM (not active). The IC50 at Beta-galactosidase [2] is > 66.6 µM (inactive).
On to `Cc1c(Br)cccc1NC(=O)c1sccc1-n1cccc1`, for which the IC50 in assay [4] is > 100 µM (not active); in [5], > 100 µM (inactive).
Turning to `COc1cc2cc(C(=O)O)[nH]c2c(OC)c1OC`, the AC50 is 23 µM (active) at Trypsin and > 100 µM (inactive) on CAAX prenyl protease 2.
Consider `O=C(/C=C/c1ccc(Cl)cc1)N1CCN(c2ccc([N+](=O)[O-])c(N3CCOCC3)c2)CC1`, for which the IC50 at Beta-galactosidase [6] is > 80 µM (inactive); in assay [4] it was > 100 µM (not active); in assay [5], > 100 µM (inactive).
Regarding `COc1ccc(-c2csc(NC(=O)CSc3nc(C)nc4sc(C(=O)O)c(C)c34)n2)cc1`, the IC50 was 7.81 µM (active) in [7]; > 56.8 µM (not active) in assay [8]; 92.7 µM (active) at Genome polyprotein; 4.31 µM (active) in assay [9]; 14.6 µM (active) in [10]; > 50 µM (inactive) in assay [11].
`Cc1ccc(-n2nnnc2C(Cl)(Cl)c2nnnn2-c2ccc(C)cc2)cc1`: the half-maximal effective concentration (EC50) in assay [12] is > 38 µM (not active); in assay [14], 9.11 µM (active); in [15], 9.09 µM (active); in assay [18], 1.11 µM (active); in assay [19], 15 µM (active). The AC50 is 4.71 µM (active) in assay [13], 1.27 µM (active) in [16], 15.6 µM (active) in assay [17] and > 70 µM (inactive) in assay [20]. Further, the IC50 in assay [8] was 4.55 µM (active); on Large T antigen, 11.1 µM (active); in assay [11] it was 5.57 µM (active).
Regarding `CCN1CCN(S(=O)(=O)c2ccc(Cl)c(C(=O)Nc3ccccc3N3CCOCC3)c2)CC1`, the half-maximal inhibitory concentration (IC50) in assay [21] is 3.81 µM (active); in assay [22], 4.8 µM (active).
With `COc1ccccc1NC(=O)COC(=O)c1cc2c(s1)CCC2`, the AC50 at Caspase-6 is 5.53 µM (active). Further, the IC50 is 51 µM (active) in assay [21] and 19.1 µM (active) in [22].
Take `c1cc(CNc2ccc(N3CCOCC3)cc2)ccn1`: the results for the IC50 in assay [4] and in assay [5] were > 100 µM (not active) and > 100 µM (inactive), respectively.
For the compound `CCCCNC(=O)Nc1ccc2nc(-c3ccco3)c(-c3ccco3)nc2c1`, in [23], the IC50 is 0.452 µM (active).
